A word on the IC50: it is the point on the concentration scale where inhibition reaches its midpoint. For orientation: inhibition means the relative decrease from the control value, in per cent.

Holding throughout (assay): potency against CXCR6 with APJ panel – cell-based, beta-arrestin, DiscoveRx, uHTS hits, dose response (AID 624129)
For assay [1], the target named is Apelin receptor (Homo sapiens) (UniProt P35414). The following applies: CXCR6 beta-arrestin (DiscoveRx) antagonist cell assay, APJ.
For assay [2], the target named is Beta-galactosidase (Escherichia coli) (UniProt Q8VNN2). The settings on record: CXCR6 beta-arrestin (DiscoveRx) antagonist cell assay, b-galactosidase.
Assay [3] deals with C-C chemokine receptor type 6 (Homo sapiens) (UniProt P51684). The settings on record: CXCR6 beta-arrestin (DiscoveRx) antagonist cell assay.
In assay [4] the target is C-X-C chemokine receptor type 6 (Homo sapiens) (UniProt O00574). The following applies: CXCR6 beta-arrestin (DiscoveRx) antagonist cell assay; for inhibition: CXCR6, run 1, dose range 2, at 80 µM (top of the series).
Where [5] appears, read: dose range 1, mean IC50 across replicates.
The mark [6] stands for this setting: CCR6, dose range 1, mean IC50 across replicates.
Where [7] appears, read: CXCR6, dose range 1, mean IC50 across replicates.

Active and inactive are the calls of the source. The rule behind the calls is not given here.

Chain of C-X-C chemokine receptor type 6 (Homo sapiens) (O00574 whole entry, looked up): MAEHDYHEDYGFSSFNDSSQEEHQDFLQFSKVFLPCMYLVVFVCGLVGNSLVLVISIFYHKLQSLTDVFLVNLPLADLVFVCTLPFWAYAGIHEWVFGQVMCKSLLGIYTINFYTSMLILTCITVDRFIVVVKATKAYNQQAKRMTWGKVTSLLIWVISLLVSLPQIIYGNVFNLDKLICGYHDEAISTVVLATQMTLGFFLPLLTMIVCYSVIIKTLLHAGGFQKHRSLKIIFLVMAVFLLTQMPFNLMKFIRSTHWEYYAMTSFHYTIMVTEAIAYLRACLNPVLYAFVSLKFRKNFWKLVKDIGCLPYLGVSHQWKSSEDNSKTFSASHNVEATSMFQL
Chain of Beta-galactosidase (Escherichia coli) (Q8VNN2 whole entry, looked up): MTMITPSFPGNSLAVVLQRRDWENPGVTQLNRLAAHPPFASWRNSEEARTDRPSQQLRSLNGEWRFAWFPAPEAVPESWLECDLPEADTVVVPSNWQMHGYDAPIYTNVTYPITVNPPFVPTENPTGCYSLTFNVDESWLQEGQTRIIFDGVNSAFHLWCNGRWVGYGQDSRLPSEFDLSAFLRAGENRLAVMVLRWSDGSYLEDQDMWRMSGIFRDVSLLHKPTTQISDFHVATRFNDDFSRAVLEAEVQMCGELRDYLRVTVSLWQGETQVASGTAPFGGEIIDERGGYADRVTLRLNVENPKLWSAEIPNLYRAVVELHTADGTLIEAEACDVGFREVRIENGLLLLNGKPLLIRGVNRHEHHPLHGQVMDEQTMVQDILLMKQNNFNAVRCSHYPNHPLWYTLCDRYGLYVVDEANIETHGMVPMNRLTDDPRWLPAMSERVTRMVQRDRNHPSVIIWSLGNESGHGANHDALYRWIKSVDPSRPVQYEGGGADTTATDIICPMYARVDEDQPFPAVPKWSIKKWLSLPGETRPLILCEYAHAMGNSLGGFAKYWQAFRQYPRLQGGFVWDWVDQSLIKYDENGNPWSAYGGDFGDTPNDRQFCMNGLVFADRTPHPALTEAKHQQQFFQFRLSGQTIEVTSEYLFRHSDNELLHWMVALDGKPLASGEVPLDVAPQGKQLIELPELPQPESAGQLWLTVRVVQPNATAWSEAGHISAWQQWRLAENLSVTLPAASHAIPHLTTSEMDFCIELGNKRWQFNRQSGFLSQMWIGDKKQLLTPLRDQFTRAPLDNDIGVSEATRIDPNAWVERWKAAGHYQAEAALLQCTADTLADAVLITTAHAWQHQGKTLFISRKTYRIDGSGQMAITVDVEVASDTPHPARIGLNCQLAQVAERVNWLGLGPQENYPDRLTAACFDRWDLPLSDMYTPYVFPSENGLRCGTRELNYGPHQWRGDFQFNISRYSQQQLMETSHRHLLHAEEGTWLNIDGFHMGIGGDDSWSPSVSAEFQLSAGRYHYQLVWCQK

As to `COc1ccc(OC)c(NC(=O)c2nc(S(=O)(=O)Cc3ccccc3)ncc2Cl)c1`, the IC50 in assay [1] (dose range 1) was 13.7 µM; in assay [1] (setting [5]), 12.6 µM; in assay [1] (run 2, dose range 1), 11.4 µM; in assay [1] (run 3, dose range 1), more than 80 µM; in assay [2] (dose range 1), > 80 µM (inactive); in assay [2] (setting [5]), more than 80 µM. For the same molecule, the IC50 is 7.57 µM in assay [3] (CCR6, dose range 1); 7.24 µM in assay [3] (setting [6]); 6.9 µM in assay [3] (CCR6, run 2, dose range 1); 7.68 µM in assay [4] (CXCR6, dose range 1); 8.6 µM in assay [4] (setting [7]); 8.96 µM in assay [4] (CXCR6, run 1, dose range 2). The half-maximal inhibitory concentration (IC50) in assay [4] (CXCR6, run 2, dose range 1) amounted to 8.78 µM; in assay [4] (CXCR6, run 2, dose range 2) it was 8.98 µM.
Regarding `C/C(=N\NC(=O)c1cc(-c2cccs2)nc2ccccc12)c1ccccn1`, the IC50 was 2.79 µM in assay [1] (dose range 1); 7.52 µM in assay [1] (setting [5]); 15.3 µM in assay [1] (run 2, dose range 1); 4.43 µM in assay [1] (run 3, dose range 1); > 80 µM (inactive) in assay [2] (dose range 1); more than 80 µM in assay [2] (setting [5]). Also, the 50% inhibitory concentration (IC50) was 2.42 µM in assay [3] (CCR6, dose range 1); 3.22 µM in assay [3] (setting [6]); 4.01 µM in assay [3] (CCR6, run 2, dose range 1); 4.85 µM in assay [4] (CXCR6, dose range 1); 4.74 µM in assay [4] (setting [7]); 2.69 µM in assay [4] (CXCR6, run 1, dose range 2). The IC50 in assay [4] (CXCR6, run 2, dose range 1) is 6.67 µM; in assay [4] (CXCR6, run 2, dose range 2) it was more than 79 µM.
As for `Cc1cccc(C)c1NC(=O)c1nc(S(=O)(=O)Cc2ccccc2)ncc1Cl`, the half-maximal inhibitory concentration (IC50) in assay [1] (setting [5]) is more than 80 µM; in assay [1] (run 2, dose range 1), more than 80 µM; in assay [1] (run 3, dose range 1) it was more than 80 µM; in assay [2] (dose range 1), > 80 µM (inactive); in assay [2] (setting [5]), more than 80 µM; in assay [3] (setting [6]), more than 80 µM. The IC50 in assay [3] (CCR6, run 2, dose range 1) is more than 80 µM; in assay [4] (CXCR6, dose range 1), > 80 µM (inactive); in assay [4] (setting [7]), more than 80 µM; in assay [4] (CXCR6, run 2, dose range 1), more than 80 µM. Also, in assay [4], the inhibition was -9.6%.
As to `Cc1ccc(C(C[N+](=O)[O-])Sc2ccc(N)cc2)cc1` (configuration not stated), the IC50 in assay [1] (dose range 1) was 15.5 µM; in assay [1] (setting [5]), 19.1 µM; in assay [1] (run 2, dose range 1), 22.8 µM; in assay [1] (run 3, dose range 1) it was more than 80 µM; in assay [2] (dose range 1), 31.8 µM; in assay [2] (setting [5]), 31.8 µM. Besides, the IC50 in assay [3] (CCR6, dose range 1) was 14.3 µM; in assay [3] (setting [6]) it was 18.8 µM; in assay [3] (CCR6, run 2, dose range 1) it was 23.3 µM; in assay [4] (setting [7]), 21.8 µM; in assay [4] (CXCR6, run 2, dose range 1) it was 24 µM. Also, the IC50 entry in assay [4] (CXCR6, dose range 1) is “inactive”. Also, in assay [4], the inhibition was found to be 157%.
Regarding `CC(C)(C)c1ccc(CN2N=Nc3ccccc3S2(=O)=O)cc1`, the IC50 is 13.3 µM in assay [1] (dose range 1); 25.6 µM in assay [1] (setting [5]); 27.9 µM in assay [1] (run 2, dose range 1); 35.5 µM in assay [1] (run 3, dose range 1); > 80 µM (inactive) in assay [2] (dose range 1); more than 80 µM in assay [2] (setting [5]). Besides, the 50% inhibitory concentration (IC50) was 11.2 µM in assay [3] (CCR6, dose range 1); 17.2 µM in assay [3] (setting [6]); 23.1 µM in assay [3] (CCR6, run 2, dose range 1); 16.3 µM in assay [4] (setting [7]); 20 µM in assay [4] (CXCR6, run 2, dose range 1). Further, in assay [4] (CXCR6, dose range 1), the IC50 entry was “inactive”. Moreover, the inhibition in assay [4] came out at 142%.
Regarding `O=C1CN(C(=O)CSc2nc3cc(Cl)ccc3c(=O)n2Cc2ccccc2)c2ccccc2N1`, the IC50 is > 80 µM (inactive) in assay [1] (dose range 1); more than 80 µM in assay [1] (setting [5]); more than 80 µM in assay [1] (run 2, dose range 1); more than 80 µM in assay [1] (run 3, dose range 1); > 80 µM (inactive) in assay [2] (dose range 1); more than 80 µM in assay [2] (setting [5]). The IC50 was 9.4 µM in assay [3] (CCR6, dose range 1); 11.1 µM in assay [3] (setting [6]); 12.7 µM in assay [3] (CCR6, run 2, dose range 1); 8.57 µM in assay [4] (setting [7]); 9.5 µM in assay [4] (CXCR6, run 1, dose range 2); more than 80 µM in assay [4] (CXCR6, run 2, dose range 1). The molecule also displayed a concentration for half-maximal inhibition (IC50) in assay [4] (CXCR6, run 2, dose range 2) of 7.63 µM.
Regarding `O=C(NNC(=O)C12CC3CC(CC(C3)C1)C2)c1ccccn1`, the half-maximal inhibitory concentration (IC50) in assay [1] (dose range 1) was 10.3 µM; in assay [1] (setting [5]) it was 9.16 µM; in assay [1] (run 2, dose range 1), 8.53 µM; in assay [1] (run 3, dose range 1), 8.62 µM; in assay [2] (dose range 1), > 80 µM (inactive); in assay [2] (setting [5]), more than 80 µM. The IC50 is 8.92 µM in assay [3] (CCR6, dose range 1); 8.58 µM in assay [3] (setting [6]); 8.23 µM in assay [3] (CCR6, run 2, dose range 1); 18.7 µM in assay [4] (CXCR6, dose range 1); 10.9 µM in assay [4] (setting [7]); 5.57 µM in assay [4] (CXCR6, run 1, dose range 2). For the same molecule, the half-inhibitory concentration (IC50) was 8.52 µM in assay [4] (CXCR6, run 2, dose range 1) and 10.9 µM in assay [4] (CXCR6, run 2, dose range 2).

The values above are taken from PubChem BioAssay AID624129 (Sanford-Burnham Center for Chemical Genomics, 2012).
